Molecules are shown by their SMILES.

In this experiment the target is T1, human PAR4 (Homo sapiens, UniProt Q96RI0).
T1 construct: expressed in transfected cells; host or cells: HEK293 PAR4 Clone 1.2A (BMS Arctic ID 383940)
T1 sequence (Q96RI0 18-385): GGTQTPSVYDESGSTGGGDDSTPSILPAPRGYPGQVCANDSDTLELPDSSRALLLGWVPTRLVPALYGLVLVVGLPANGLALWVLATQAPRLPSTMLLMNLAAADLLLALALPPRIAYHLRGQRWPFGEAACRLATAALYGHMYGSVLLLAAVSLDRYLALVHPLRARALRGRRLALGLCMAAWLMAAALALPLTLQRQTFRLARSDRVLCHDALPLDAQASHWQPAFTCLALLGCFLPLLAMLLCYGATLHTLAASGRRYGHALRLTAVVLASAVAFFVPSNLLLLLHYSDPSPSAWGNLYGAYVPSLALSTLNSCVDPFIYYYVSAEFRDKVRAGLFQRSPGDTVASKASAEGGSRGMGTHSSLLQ
Briefly: PAR4 FLIPR assay: antagonism of agonist-peptide-induced calcium mobilization in PAR4-expressing HEK293 cells. The experiment is classed as cell-based. To be noted: H-Ala-Phe(4-F)-[…]NH2-induced intracellular calcium mobilization, 11-point curves.
Regarding `COc1cnc2c(-c3nc4cc(F)c(O[C@@H](C)[C@@H](C)OC(=O)Nc5cncnc5)cc4s3)cc(C)cc2n1` [Example 410, (2R,3S)-3-((5-fluoro-2-(2-methoxy-7-methylquinoxalin-5-yl)benzo[d]thiazol-6-yl)oxy)butan-2-yl pyrimidin-5-ylcarbamate], the IC50 (in general, the point on the concentration scale where inhibition reaches its midpoint) was 0.3 nM.

For the compound `COc1cnc2c(-c3nc4cc(F)c(OC[C@@H](C)OC(=O)Nc5ccccc5)cc4s3)cc(C)cc2n1` [Example 411, (R)-1-((5-fluoro-2-(2-methoxy-7-methylquinoxalin-5-yl)benzo[d]thiazol-6-yl)oxy)propan-2-yl phenylcarbamate], the IC50 came to 4.4 nM.

Regarding `COc1cc(NC(=O)O[C@H](C)[C@H](C)Oc2cc3sc(-c4cc(C)cc5nc(OC)cnc45)nc3cc2F)ccn1` [Example 412, (2R,3S)-3-((5-fluoro-2-(2-methoxy-7-methylquinoxalin-5-yl)benzo[d]thiazol-6-yl)oxy)butan-2-yl (2-methoxypyridin-4-yl)carbamate], the IC50 worked out at 0.3 nM.

Take `COc1cnc2c(-c3nc4cc(F)c(O[C@@H](C)[C@@H](C)OC(=O)Nc5ccnnc5)cc4s3)cc(C)cc2n1` [Example 413, (2R,3S)-3-((5-fluoro-2-(2-methoxy-7-methylquinoxalin-5-yl)benzo[d]thiazol-6-yl)oxy)butan-2-yl pyridazin-4-ylcarbamate]: the IC50 worked out at 3.4 nM.

As for `CCCc1ncc(NC(=O)O[C@H](C)[C@H](C)Oc2cc3sc(-c4cc(C)cc5nc(OC)cnc45)nc3cc2F)cn1` [Example 414, (2R,3S)-3-((5-fluoro-2-(2-methoxy-7-methylquinoxalin-5-yl)benzo[d]thiazol-6-yl)oxy)butan-2-yl (2-propylpyrimidin-5-yl)carbamate], the 50% inhibitory concentration (IC50) is 7 nM.

On to `COc1cnc2c(-c3nc4cc(F)c(O[C@@H](C)[C@@H](C)OC(=O)Nc5cnc(C(F)(F)F)nc5)cc4s3)cc(C)cc2n1` [Example 415, (2R,3S)-3-((5-fluoro-2-(2-methoxy-7-methylquinoxalin-5-yl)benzo[d]thiazol-6-yl)oxy)butan-2-yl (2-(trifluoromethyl)pyrimidin-5-yl)carbamate], for which the 50% inhibitory concentration (IC50) turned out to be 3.1 nM.

Turning to `COc1cnc2c(-c3nc4cc(F)c(O[C@@H](C)[C@@H](C)OC(=O)Nc5ccc(C)nn5)cc4s3)cc(C)cc2n1` [Example 416, (2R,3S)-3-((5-fluoro-2-(2-methoxy-7-methylquinoxalin-5-yl)benzo[d]thiazol-6-yl)oxy)butan-2-yl (6-methylpyridazin-3-yl)carbamate], the half-inhibitory concentration (IC50) worked out at 32 nM.

As to `COc1cnc2c(-c3nc4cc(F)c(O[C@@H](C)[C@@H](C)OC(=O)Nc5cnc(C)cn5)cc4s3)cc(C)cc2n1` [Example 417, (2R,3S)-3-((5-fluoro-2-(2-methoxy-7-methylquinoxalin-5-yl)benzo[d]thiazol-6-yl)oxy)butan-2-yl (5-methylpyrazin-2-yl)carbamate], the IC50 is 11 nM.

Regarding `COc1cnc2c(-c3nc4cc(F)c(O[C@@H](C)[C@@H](C)OC(=O)Nc5cnnc(C)c5)cc4s3)cc(C)cc2n1` [Example 418, (2R,3S)-3-((5-fluoro-2-(2-methoxy-7-methylquinoxalin-5-yl)benzo[d]thiazol-6-yl)oxy)butan-2-yl (6-methylpyridazin-4-yl)carbamate], the IC50 worked out at 1.3 nM.

For `COc1cnc2c(-c3nc4cc(F)c(O[C@@H](C)[C@@H](C)OC(=O)Nc5cncc(C)c5)cc4s3)cc(C)cc2n1` [Example 419, (2R,3S)-3-((5-fluoro-2-(2-methoxy-7-methylquinoxalin-5-yl)benzo[d]thiazol-6-yl)oxy)butan-2-yl (5-methylpyridin-3-yl)carbamate], the IC50 stood at 2 nM.

With `COc1cncc(NC(=O)O[C@H](C)[C@H](C)Oc2cc3sc(-c4cc(C)cc5nc(OC)cnc45)nc3cc2F)c1` [Example 420, (2R,3S)-3-((5-fluoro-2-(2-methoxy-7-methylquinoxalin-5-yl)benzo[d]thiazol-6-yl)oxy)butan-2-yl (5-methoxypyridin-3-yl)carbamate], the IC50 is 2.2 nM.

Turning to `COc1cnc2c(-c3nc4cc(F)c(O[C@@H](C)[C@@H](C)OC(=O)Nc5cncc(C#N)c5)cc4s3)cc(C)cc2n1` [Example 421, (2R,3S)-3-((5-fluoro-2-(2-methoxy-7-methylquinoxalin-5-yl)benzo[d]thiazol-6-yl)oxy)butan-2-yl (5-cyanopyridin-3-yl)carbamate], the IC50 stood at 1.8 nM.

Turning to `COc1cnc2c(-c3nc4cc(F)c(O[C@@H](C)[C@@H](C)OC(=O)Nc5cnc(OC)c(C)c5)cc4s3)cc(C)cc2n1` [Example 422, (2R,3S)-3-((5-fluoro-2-(2-methoxy-7-methylquinoxalin-5-yl)benzo[d]thiazol-6-yl)oxy)butan-2-yl (6-methoxy-5-methylpyridin-3-yl)carbamate], the IC50 was 2.2 nM.

Turning to `COc1cnc2c(-c3nc4cc(F)c(O[C@@H](C)[C@@H](C)OC(=O)Nc5cccnc5)cc4s3)cc(C)cc2n1` [Example 423, (2R,3S)-3-((5-fluoro-2-(2-methoxy-7-methylquinoxalin-5-yl)benzo[d]thiazol-6-yl)oxy)butan-2-yl pyridin-3-ylcarbamate], the IC50 amounted to 4.2 nM.

Regarding `COc1cnc2c(-c3nc4cc(F)c(O[C@@H](C)[C@@H](C)OC(=O)Nc5ccc(C(=O)N6CCOCC6)nc5)cc4s3)cc(C)cc2n1` [Example 426, (2R,3S)-3-((5-fluoro-2-(2-methoxy-7-methylquinoxalin-5-yl)benzo[d]thiazol-6-yl)oxy)butan-2-yl (6-(morpholine-4-carbonyl)pyridin-3-yl)carbamate], the IC50 worked out at 5.4 nM.

Turning to `COc1cnc2c(-c3nc4c(Cl)c(F)c(OC[C@@H](C)OC(=O)Nc5ccnc(C(N)=O)c5)cc4s3)cc(C)cc2n1` [Example 427, (R)-1-((4-chloro-5-fluoro-2-(2-methoxy-7-methylquinoxalin-5-yl)benzo[d]thiazol-6-yl)oxy)propan-2-yl (2-carbamoylpyridin-4-yl)carbamate], the IC50 was 7.6 nM.

Regarding `CNC(=O)c1cc(NC(=O)O[C@H](C)COc2cc3sc(-c4cc(C)cc5nc(OC)cnc45)nc3c(Cl)c2F)ccn1` [Example 428, (R)-1-((4-chloro-5-fluoro-2-(2-methoxy-7-methylquinoxalin-5-yl)benzo[d]thiazol-6-yl)oxy)propan-2-yl (2-(methyl carbamoyl)pyridin-4-yl)carbamate], the IC50 stood at 5.9 nM.

Take `COc1cnc2c(-c3nc4cc(F)c(OC[C@@H](C)OC(=O)Nc5cnc(C(N)=O)nc5)cc4s3)cc(C)cc2n1` [Example 429, (R)-1-((5-fluoro-2-(2-methoxy-7-methylquinoxalin-5-yl)benzo[d]thiazol-6-yl)oxy)propan-2-yl (2-carbamoylpyrimidin-5-yl)carbamate]: the IC50 is 0.5 nM.

For the compound `CNC(=O)c1ncc(NC(=O)O[C@H](C)COc2cc3sc(-c4cc(C)cc5nc(OC)cnc45)nc3cc2F)cn1` [Example 430, (R)-1-((5-fluoro-2-(2-methoxy-7-methylquinoxalin-5-yl)benzo[d]thiazol-6-yl)oxy)propan-2-yl (2-(methylcarbamoyl)pyrimidin-5-yl)carbamate], the IC50 was 0.9 nM.

As to `COc1cnc2c(-c3nc4cc(F)c(OC[C@@H](C)OC(=O)Nc5cnc(C(=O)N(C)C)nc5)cc4s3)cc(C)cc2n1` [Example 431, (R)-1-((5-fluoro-2-(2-methoxy-7-methylquinoxalin-5-yl)benzo[d]thiazol-6-yl)oxy)propan-2-yl (2-(dimethylcarbamoyl)pyrimidin-5-yl)carbamate], the IC50 stood at 1.1 nM.

For the compound `CNC(=O)c1ccc(NC(=O)O[C@H](C)COc2cc3sc(-c4cc(C)cc5nc(OC)cnc45)nc3cc2F)cn1` [Example 432, (R)-1-((5-fluoro-2-(2-methoxy-7-methylquinoxalin-5-yl)benzo[d]thiazol-6-yl)oxy)propan-2-yl (6-(methylcarbamoyl)pyridin-3-yl)carbamate], the IC50 stood at 0.4 nM.

In the case of `COc1cnc2c(-c3nc4cc(F)c(OC[C@@H](C)OC(=O)Nc5ccc(C(N)=O)nc5)cc4s3)cc(C)cc2n1` [Example 433, (R)-1-((5-fluoro-2-(2-methoxy-7-methylquinoxalin-5-yl)benzo[d]thiazol-6-yl)oxy)propan-2-yl (6-carbamoylpyridin-3-yl)carbamate], the IC50 was 0.6 nM.

On to `COc1cnc2c(-c3nc4cc(F)c(OC[C@@H](C)OC(=O)Nc5ccc(C(N)=O)nc5)cc4s3)cc(C)cc2n1` [Example 434, (R)-1-((5-fluoro-2-(2-methoxy-7-methylquinoxalin-5-yl)benzo[d]thiazol-6-yl)oxy)propan-2-yl (6-carbamoylpyridin-3-yl)carbamate], for which the IC50 was determined as 1.4 nM.

For the compound `COc1cnc2c(-c3nc4cc(F)c(OC[C@@H](C)OC(=O)Nc5ccc(C(=O)N6CCOCC6)nc5)cc4s3)cc(C)cc2n1` [Example 435, (R)-1-((5-fluoro-2-(2-methoxy-7-methylquinoxalin-5-yl)benzo[d]thiazol-6-yl)oxy)propan-2-yl (6-(morpholine-4-carbonyl)pyridin-3-yl)carbamate], the half-maximal inhibitory concentration (IC50) was found to be 0.9 nM.

As for `CNC(=O)c1ccc(NC(=O)O[C@H](C)[C@H](C)Oc2cc3sc(-c4cc(C)cc5nc(OC)cnc45)nc3cc2F)cn1` [Example 436, (2R,3S)-3-((5-fluoro-2-(2-methoxy-7-methylquinoxalin-5-yl)benzo[d]thiazol-6-yl)oxy)butan-2-yl (6-(methylcarbamoyl)pyridin-3-yl)carbamate], the IC50 is 1.5 nM.

The record behind these values is patent US12060347B2 (BRISTOL-MYERS SQUIBB COMPANY, priority 2016, dated 2024).
